From paper PMC4310350 (Drug Design, Development and Therapy, 2015)
Entries after “also recorded” stand apart in the source; their conditions may differ.

Tests used:
OATP1B3 [1] = target: T1, OATP1B3 (Homo sapiens, UniProt Q9NPD5); test: Uptake in HEK293 cells overexpressing OATP1B3; assay type: in vitro ADME; conditions: probe substrate, functionality check of OATP1B3
T1 sequence (Q9NPD5 1-702): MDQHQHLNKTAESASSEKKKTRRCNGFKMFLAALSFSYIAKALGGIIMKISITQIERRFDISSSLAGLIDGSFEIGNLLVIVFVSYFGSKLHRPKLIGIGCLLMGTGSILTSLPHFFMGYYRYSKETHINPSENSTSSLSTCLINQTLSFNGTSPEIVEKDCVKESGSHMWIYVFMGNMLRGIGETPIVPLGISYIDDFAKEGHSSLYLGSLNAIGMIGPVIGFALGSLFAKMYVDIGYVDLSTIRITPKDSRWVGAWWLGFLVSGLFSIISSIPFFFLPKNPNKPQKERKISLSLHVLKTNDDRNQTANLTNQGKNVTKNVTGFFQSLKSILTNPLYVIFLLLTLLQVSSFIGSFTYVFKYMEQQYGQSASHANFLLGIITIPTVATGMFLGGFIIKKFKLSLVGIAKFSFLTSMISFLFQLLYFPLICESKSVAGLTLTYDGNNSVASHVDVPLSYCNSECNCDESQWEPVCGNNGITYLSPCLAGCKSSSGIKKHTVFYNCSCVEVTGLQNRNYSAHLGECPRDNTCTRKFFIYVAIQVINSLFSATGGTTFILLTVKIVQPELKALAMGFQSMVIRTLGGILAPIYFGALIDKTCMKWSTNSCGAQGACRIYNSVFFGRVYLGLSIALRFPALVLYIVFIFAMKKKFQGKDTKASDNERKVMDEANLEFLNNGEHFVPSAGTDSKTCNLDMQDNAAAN

BCRP = target: T2, BCRP (Homo sapiens, UniProt Q9UNQ0); test: A-to-B and B-to-A transport in LLC-PK1 cells overexpressing BCRP; assay type: in vitro ADME; conditions: probe substrate, LLC-PK1-BCRP compared with LLC-PK1-mock cells
T2 sequence (Q9UNQ0 1-655): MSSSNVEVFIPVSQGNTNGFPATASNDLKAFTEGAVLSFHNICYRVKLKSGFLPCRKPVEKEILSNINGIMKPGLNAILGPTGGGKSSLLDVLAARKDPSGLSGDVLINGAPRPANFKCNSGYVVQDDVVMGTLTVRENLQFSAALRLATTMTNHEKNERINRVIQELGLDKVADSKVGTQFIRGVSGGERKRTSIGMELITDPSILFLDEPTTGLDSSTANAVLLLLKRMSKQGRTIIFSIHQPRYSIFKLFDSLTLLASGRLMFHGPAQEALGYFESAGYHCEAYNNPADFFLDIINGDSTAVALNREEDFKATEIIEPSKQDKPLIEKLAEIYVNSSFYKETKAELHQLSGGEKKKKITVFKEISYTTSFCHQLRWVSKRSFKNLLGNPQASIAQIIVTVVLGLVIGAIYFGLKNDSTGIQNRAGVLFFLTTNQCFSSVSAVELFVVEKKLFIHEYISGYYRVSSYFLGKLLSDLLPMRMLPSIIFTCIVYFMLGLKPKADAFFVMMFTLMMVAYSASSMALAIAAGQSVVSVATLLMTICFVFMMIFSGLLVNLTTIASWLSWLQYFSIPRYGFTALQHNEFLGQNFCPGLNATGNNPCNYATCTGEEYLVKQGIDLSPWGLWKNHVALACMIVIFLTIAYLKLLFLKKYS

OATP1B1 [2] = target: T3, OATP1B1 (Homo sapiens, UniProt Q9Y6L6); test: Uptake in HEK293 cells overexpressing OATP1B1; assay type: in vitro ADME; conditions: probe substrate, functionality check of OATP1B1
T3 sequence (Q9Y6L6 1-691): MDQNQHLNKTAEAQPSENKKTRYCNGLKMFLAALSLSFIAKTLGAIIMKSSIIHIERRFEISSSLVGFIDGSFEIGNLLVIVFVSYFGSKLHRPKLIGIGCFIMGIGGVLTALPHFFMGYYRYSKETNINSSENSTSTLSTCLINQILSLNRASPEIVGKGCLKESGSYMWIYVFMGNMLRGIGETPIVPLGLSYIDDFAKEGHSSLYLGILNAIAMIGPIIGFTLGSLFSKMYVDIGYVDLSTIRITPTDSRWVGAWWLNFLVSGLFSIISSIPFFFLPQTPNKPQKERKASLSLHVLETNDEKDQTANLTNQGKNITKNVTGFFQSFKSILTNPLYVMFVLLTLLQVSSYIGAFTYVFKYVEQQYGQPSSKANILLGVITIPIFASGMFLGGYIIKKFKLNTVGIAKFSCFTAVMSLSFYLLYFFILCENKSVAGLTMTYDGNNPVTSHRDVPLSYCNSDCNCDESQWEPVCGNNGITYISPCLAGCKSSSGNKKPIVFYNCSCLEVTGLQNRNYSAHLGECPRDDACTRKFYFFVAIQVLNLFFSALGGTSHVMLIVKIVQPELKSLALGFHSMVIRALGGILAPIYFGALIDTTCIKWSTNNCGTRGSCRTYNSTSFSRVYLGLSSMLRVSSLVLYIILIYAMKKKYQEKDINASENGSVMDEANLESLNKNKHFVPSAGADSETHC

OAT3 = target: T4, OAT3 (Homo sapiens, UniProt Q8TCC7); test: Uptake in HEK293 cells overexpressing OAT3; assay type: in vitro ADME; conditions: probe substrate, functionality check of OAT3
T4 sequence (Q8TCC7 1-542): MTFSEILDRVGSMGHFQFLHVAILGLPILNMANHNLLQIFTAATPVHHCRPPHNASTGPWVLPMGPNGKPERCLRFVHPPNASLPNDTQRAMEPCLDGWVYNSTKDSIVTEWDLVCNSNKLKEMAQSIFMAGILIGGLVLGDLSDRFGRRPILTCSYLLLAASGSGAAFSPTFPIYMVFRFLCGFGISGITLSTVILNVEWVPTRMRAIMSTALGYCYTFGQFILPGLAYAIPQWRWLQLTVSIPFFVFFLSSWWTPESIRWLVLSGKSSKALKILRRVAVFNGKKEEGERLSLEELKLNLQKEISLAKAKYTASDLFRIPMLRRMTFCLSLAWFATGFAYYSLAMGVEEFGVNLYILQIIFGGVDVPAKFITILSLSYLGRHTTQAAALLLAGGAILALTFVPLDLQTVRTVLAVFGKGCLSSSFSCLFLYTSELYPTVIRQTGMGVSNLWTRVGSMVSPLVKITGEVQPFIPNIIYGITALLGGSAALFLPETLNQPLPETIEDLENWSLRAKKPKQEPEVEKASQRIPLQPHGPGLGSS

OCT1 = target: T5, OCT1 (Homo sapiens, UniProt O15245); test: Uptake in HEK293 cells overexpressing OCT1; assay type: in vitro ADME; conditions: probe substrate, functionality check of OCT1
T5 sequence (O15245 1-554): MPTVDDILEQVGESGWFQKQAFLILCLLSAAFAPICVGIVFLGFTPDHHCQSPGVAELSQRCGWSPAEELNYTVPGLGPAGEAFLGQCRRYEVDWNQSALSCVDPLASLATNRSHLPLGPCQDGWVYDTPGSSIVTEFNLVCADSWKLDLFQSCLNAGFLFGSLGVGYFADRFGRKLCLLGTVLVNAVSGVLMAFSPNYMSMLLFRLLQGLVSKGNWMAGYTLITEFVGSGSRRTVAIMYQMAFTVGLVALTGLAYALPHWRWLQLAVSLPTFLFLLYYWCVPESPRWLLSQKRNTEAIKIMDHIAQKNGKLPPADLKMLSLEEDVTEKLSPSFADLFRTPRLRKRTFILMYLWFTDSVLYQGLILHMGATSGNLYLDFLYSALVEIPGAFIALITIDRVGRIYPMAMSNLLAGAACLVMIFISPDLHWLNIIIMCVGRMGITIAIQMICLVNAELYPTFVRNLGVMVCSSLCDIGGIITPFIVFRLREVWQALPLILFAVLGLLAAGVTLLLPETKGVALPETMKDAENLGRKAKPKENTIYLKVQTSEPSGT

OCT2 = target: T6, OCT2 (Homo sapiens, UniProt O15244); test: Uptake in HEK293 cells overexpressing OCT2; assay type: in vitro ADME; conditions: probe substrate, functionality check of OCT2
T6 sequence (O15244 1-555): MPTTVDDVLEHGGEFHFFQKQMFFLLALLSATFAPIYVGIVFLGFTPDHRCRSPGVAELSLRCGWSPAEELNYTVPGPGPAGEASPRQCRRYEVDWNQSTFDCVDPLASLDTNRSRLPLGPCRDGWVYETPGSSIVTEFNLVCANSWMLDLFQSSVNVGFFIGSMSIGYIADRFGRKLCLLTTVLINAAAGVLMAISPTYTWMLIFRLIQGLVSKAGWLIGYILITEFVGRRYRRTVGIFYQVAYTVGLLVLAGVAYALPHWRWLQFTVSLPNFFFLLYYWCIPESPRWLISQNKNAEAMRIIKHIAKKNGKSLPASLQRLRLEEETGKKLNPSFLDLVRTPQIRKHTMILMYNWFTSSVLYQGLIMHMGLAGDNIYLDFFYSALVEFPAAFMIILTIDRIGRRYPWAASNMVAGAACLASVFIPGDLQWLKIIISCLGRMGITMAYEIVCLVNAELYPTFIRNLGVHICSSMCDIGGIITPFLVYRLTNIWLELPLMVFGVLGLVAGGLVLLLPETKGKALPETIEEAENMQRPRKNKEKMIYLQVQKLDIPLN

P-gp = P-gp (Homo sapiens, UniProt P08183); test: A-to-B and B-to-A transport in LLC-PK1 cells overexpressing P-gp; assay type: in vitro ADME; conditions: pig, LLC-PK1, Net efflux ratio, probe substrate, LLC-PK1-MDR1 compared with LLC-PK1-mock cells
OATP1B1 [3] = target: T3, OATP1B1; conditions: 10 μM catalposide, HEK293-OATP1B1
OATP1B3 [4] = target: T1, OATP1B3; conditions: read-out: IC50 as inhibitor of OATP1B3; cited from earlier work
OATP1B3 [5] = target: T1, OATP1B3; assay type: in vitro ADME; conditions: 10 μM catalposide, HEK293-OATP1B3
[6] = substrate: O=C(O[C@H]1[C@@H]2C=CO[C@@H](O[C@@H]3O[C@H](CO)[C@@H](O)[C@H](O)[C@H]3O)[C@@H]2[C@@]2(CO)O[C@@H]12)c1ccc(O)cc1; test: Uptake in HEK293 cells overexpressing OATP1B1; assay type: in vitro ADME; conditions: other: OATP1B1-mediated uptake, 2–500 μM catalposide, 5 minutes; 37.0 °C

Chain of P-gp (P08183 whole entry): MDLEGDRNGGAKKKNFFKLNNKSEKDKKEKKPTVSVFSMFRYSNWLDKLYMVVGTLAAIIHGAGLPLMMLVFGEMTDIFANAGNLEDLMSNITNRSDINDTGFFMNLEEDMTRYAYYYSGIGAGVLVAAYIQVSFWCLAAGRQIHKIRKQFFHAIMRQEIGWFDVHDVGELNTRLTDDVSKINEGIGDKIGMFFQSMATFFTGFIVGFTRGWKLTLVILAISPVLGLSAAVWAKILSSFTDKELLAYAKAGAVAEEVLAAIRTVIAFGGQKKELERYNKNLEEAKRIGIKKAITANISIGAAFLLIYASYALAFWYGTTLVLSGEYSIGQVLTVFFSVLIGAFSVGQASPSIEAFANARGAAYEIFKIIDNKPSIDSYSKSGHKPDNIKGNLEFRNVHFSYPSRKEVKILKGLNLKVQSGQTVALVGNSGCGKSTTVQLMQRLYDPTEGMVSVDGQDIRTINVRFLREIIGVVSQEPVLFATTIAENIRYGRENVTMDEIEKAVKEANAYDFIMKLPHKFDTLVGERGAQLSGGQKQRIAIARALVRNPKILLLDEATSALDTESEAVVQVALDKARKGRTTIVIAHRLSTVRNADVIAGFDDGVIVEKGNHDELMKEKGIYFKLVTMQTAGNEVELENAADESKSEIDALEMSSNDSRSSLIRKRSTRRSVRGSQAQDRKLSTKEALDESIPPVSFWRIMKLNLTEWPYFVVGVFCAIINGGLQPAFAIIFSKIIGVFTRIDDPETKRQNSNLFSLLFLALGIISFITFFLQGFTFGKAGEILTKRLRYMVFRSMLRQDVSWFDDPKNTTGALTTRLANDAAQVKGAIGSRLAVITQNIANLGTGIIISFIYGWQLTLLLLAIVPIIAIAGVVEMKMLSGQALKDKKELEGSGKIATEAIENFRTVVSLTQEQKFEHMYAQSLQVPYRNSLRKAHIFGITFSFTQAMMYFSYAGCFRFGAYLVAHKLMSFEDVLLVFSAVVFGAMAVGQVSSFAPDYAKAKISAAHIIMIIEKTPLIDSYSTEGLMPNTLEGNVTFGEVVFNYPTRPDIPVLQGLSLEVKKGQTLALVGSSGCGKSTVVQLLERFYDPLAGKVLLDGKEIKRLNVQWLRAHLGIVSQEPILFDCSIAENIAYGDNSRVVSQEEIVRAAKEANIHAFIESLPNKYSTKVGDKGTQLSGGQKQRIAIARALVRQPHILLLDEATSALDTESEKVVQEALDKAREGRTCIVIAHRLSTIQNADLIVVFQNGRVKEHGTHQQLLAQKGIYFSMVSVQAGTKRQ

C[C@]12CC[C@@H]3c4ccc(O)cc4CC[C@H]3[C@@H]1CC[C@@H]2O[C@@H]1O[C@H](C(=O)O)[C@@H](O)[C@H](O)[C@H]1O [EG, estradiol-17β-D-glucuronide]
Fold increase in uptake vs HEK293 mock cells (OATP1B3 [1]): 15.0 fold

C[C@]12CC[C@@H]3c4ccc(OS(=O)(=O)O)cc4CC[C@H]3[C@@H]1CCC2=O [ES, estrone-3-sulfate]
Net efflux ratio (BCRP): 4.6
Fold increase in uptake vs HEK293 mock cells (OATP1B1 [2]): 17.3 fold
Fold increase in uptake vs HEK293 mock cells (OAT3): 18.9 fold

C[n+]1ccc(-c2ccccc2)cc1 [MPP^+, methyl-4-phenylpyridinium]
Fold increase in uptake vs HEK293 mock cells (OCT1): 13.2 fold
Fold increase in uptake vs HEK293 mock cells (OCT2): 17.8 fold

C[C@H]1O[C@@H](O[C@H]2[C@@H](O)C[C@H](O[C@H]3[C@@H](O)C[C@H](O[C@H]4CC[C@@]5(C)[C@H](CC[C@@H]6[C@@H]5C[C@@H](O)[C@]5(C)[C@@H](C7=CC(=O)OC7)CC[C@]65O)C4)O[C@@H]3C)O[C@@H]2C)C[C@H](O)[C@@H]1O [digoxin]
efflux ratio at 1 h (P-gp): 5.7

Cc1ccc(C)c(OCCCC(C)(C)C(=O)O)c1 [gemfibrozil]
Effect on OATP1B1-mediated catalposide uptake (OATP1B1 [3]): decreased to basal levels; also recorded: inhibitory effects
IC50 (OATP1B3 [4]): ~200 µM
Effect on OATP1B3-mediated catalposide uptake (OATP1B3 [5]): decreased to basal levels; also recorded: inhibitory effects

CO[C@H]1/C=C/O[C@@]2(C)Oc3c(C)c(O)c4c(O)c(c(/C=N/N5CCN(C)CC5)c(O)c4c3C2=O)NC(=O)/C(C)=C\C=C\[C@H](C)[C@H](O)[C@@H](C)[C@@H](O)[C@@H](C)[C@H](OC(C)=O)[C@@H]1C [rifampin]
Effect on OATP1B1-mediated catalposide uptake (OATP1B1 [3]): decreased to basal levels; also recorded: inhibitory effects
Effect on OATP1B3-mediated catalposide uptake (OATP1B3 [5]): decreased to basal levels; also recorded: inhibitory effects

B1: OATP1B1 (Homo sapiens) (protein)
chain: T3 sequence (Q9Y6L6 1-691)
Km [6]: 220.5 µM
Vmax [6]: 7.7 pmol/min
